According to ChEMBL document CHEMBL1143353, “Pyrazolo[1,5-a]-1,3,5-triazine as a purine bioisostere: access to potent cyclin-dependent kinase inhibitor (R)-roscovitine analogue” (J Med Chem, 2009):

Experiments:
OVCAR-4 = assay: cells; details: Homo sapiens, OVCAR-4, 72 h
Description: Antiproliferative activity against human OVCAR4 cells after 72 hrs by ViaLight assay

SK-OV-3 = assay: cells; details: Homo sapiens, SK-OV-3, 72 h
Description: Antiproliferative activity against human SKOV3 cells after 72 hrs by ViaLight assay

TK-10 = assay: cells; details: Homo sapiens, TK-10, 72 h
Description: Antiproliferative activity against human TK10 cells after 72 hrs by ViaLight assay

SF-539 = assay: cells; details: Homo sapiens, SF-539, 72 h
Description: Antiproliferative activity against human SF539 cells after 72 hrs by ViaLight assay

SK-MEL-5 = assay: cells; details: Homo sapiens, SK-MEL-5, 72 h
Description: Antiproliferative activity against human SK-MEL-5 cells after 72 hrs by ViaLight assay

SR = assay: cells; details: Homo sapiens, 72 h
Description: Antiproliferative activity against human SR cells after 72 hrs by ViaLight assay

MDA-MB-231 = assay: cells; details: Homo sapiens, MDA-MB-231, 72 h
Description: Antiproliferative activity against human MDA-MB-231 cells after 72 hrs by ViaLight assay

COLO 205 = assay: cells; details: Homo sapiens, COLO 205, 72 h
Description: Antiproliferative activity against human COLO205 cells after 72 hrs by ViaLight assay

A549 = assay: cells; details: Homo sapiens, A549, 72 h
Description: Antiproliferative activity against human A549 cells after 72 hrs by ViaLight assay

OVCAR-5 = assay: cells; details: Homo sapiens, OVCAR-5, 72 h
Description: Antiproliferative activity against human OVCAR5 cells after 72 hrs by ViaLight assay

SF-295 = assay: cells; details: Homo sapiens, SF-295, 72 h
Description: Antiproliferative activity against human SF295 cells after 72 hrs by ViaLight assay

cells = details: Homo sapiens, RPMI8266, 72 h
Description: Antiproliferative activity against human RPMI8266 cells after 72 hrs by ViaLight assay

RXF 393 = assay: cells; details: Homo sapiens, RXF 393, 72 h
Description: Antiproliferative activity against human RFX393 cells after 72 hrs by ViaLight assay

PC-3 = assay: cells; details: Homo sapiens, PC-3, 72 h
Description: Antiproliferative activity against human PC3 cells after 72 hrs by ViaLight assay

HCT-15 = assay: cells; details: Homo sapiens, HCT-15, 72 h
Description: Antiproliferative activity against human HCT15 cells after 72 hrs by ViaLight assay

[1] = Inhibition of starfish oocytes CDK1/cyclin B; set-up: species or system Marthasterias glacialis; details: oocyte
SK-MEL-2 = assay: cells; details: Homo sapiens, SK-MEL-2, 72 h
Description: Antiproliferative activity against human SK-MEL-2 cells after 72 hrs by ViaLight assay

Malme-3M = assay: cells; details: Homo sapiens, 72 h
Description: Antiproliferative activity against human MALME-3M cells after 72 hrs by ViaLight assay

SNB-75 = assay: cells; details: Homo sapiens, SNB-75, 72 h
Description: Antiproliferative activity against human SNB75 cells after 72 hrs by ViaLight assay

UO-31 = assay: cells; details: Homo sapiens, UO-31, 72 h
Description: Antiproliferative activity against human UO31 cells after 72 hrs by ViaLight assay

SH-SY5Y = assay: Antiproliferative activity against human SH-SY5Y cells after 48 hrs by MTS reduction assay; type: functional, cell-based
IGROV-1 = assay: cells; details: Homo sapiens, IGROV-1, 72 h
Description: Antiproliferative activity against human IGROV1 cells after 72 hrs by ViaLight assay

T47D = assay: cells; details: Homo sapiens, 72 h
Description: Antiproliferative activity against human T47D cells after 72 hrs by ViaLight assay

U-251 = assay: cells; details: Homo sapiens, U-251, 72 h
Description: Antiproliferative activity against human U251 cells after 72 hrs by ViaLight assay

M14 = assay: cells; details: Homo sapiens, M14, 72 h
Description: Antiproliferative activity against human M14 cells after 72 hrs by ViaLight assay

NCI-H23 = assay: cells; details: Homo sapiens, NCI-H23, 72 h
Description: Antiproliferative activity against human NCI-H23 cells after 72 hrs by ViaLight assay

MCF7 = assay: cells; details: Homo sapiens, MCF7, 72 h
Description: Antiproliferative activity against human MCF7 cells after 72 hrs by ViaLight assay

NCI/ADR-RES = assay: cells; details: Homo sapiens, 72 h
Description: Antiproliferative activity against human NCI/ADR-RES cells after 72 hrs by ViaLight assay

UACC-62 = assay: cells; details: Homo sapiens, UACC-62, 72 h
Description: Antiproliferative activity against human UACC62 cells after 72 hrs by ViaLight assay

HCT-116 = assay: cells; details: Homo sapiens, HCT-116, 72 h
Description: Antiproliferative activity against human HCT116 cells after 72 hrs by ViaLight assay

## CC[C@H](CO)Nc1nc(NCc2ccccc2)n2ncc(C(C)C)c2n1
OVCAR-4
  GI50: 2.57 µM
  TGI: 37 µM
OVCAR-4; read-out: LC50
  CC50: > 100 µM
OVCAR-4; read-out: pGI50 (converted)
  GI50: 2.63 µM
OVCAR-4; read-out: pLC50 (converted)
  CC50: 100 µM
OVCAR-4; read-out: pTGI
  TGI: 0.372 µM
SK-OV-3
  GI50: 5.55 µM
  TGI: 40.2 µM
SK-OV-3; read-out: LC50
  CC50: > 100 µM
SK-OV-3; read-out: pGI50 (converted)
  GI50: 5.5 µM
SK-OV-3; read-out: pLC50 (converted)
  CC50: 100 µM
SK-OV-3; read-out: pTGI
  TGI: 39.8 µM
TK-10
  GI50: 2 µM
  TGI: 10.9 µM
TK-10; read-out: LC50
  CC50: > 100 µM
TK-10; read-out: pGI50 (converted)
  GI50: 2 µM
TK-10; read-out: pLC50 (converted)
  CC50: 100 µM
TK-10; read-out: pTGI
  TGI: 11 µM
SF-539
  GI50: 1.22 µM
  TGI: 3.62 µM
SF-539; read-out: LC50
  CC50: 11.9 µM
SF-539; read-out: pGI50 (converted)
  GI50: 1.23 µM
SF-539; read-out: pLC50 (converted)
  CC50: 11.7 µM
SF-539; read-out: pTGI
  TGI: 3.63 µM
SK-MEL-5
  GI50: 1.78 µM
  TGI: 4.96 µM
SK-MEL-5; read-out: LC50
  CC50: 17.4 µM
SK-MEL-5; read-out: pGI50 (converted)
  GI50: 1.78 µM
SK-MEL-5; read-out: pLC50 (converted)
  CC50: 17.4 µM
SK-MEL-5; read-out: pTGI
  TGI: 5.01 µM
SR
  GI50: 0.25 µM
  TGI: 1.59 µM
SR; read-out: LC50
  CC50: > 100 µM
SR; read-out: pGI50 (converted)
  GI50: 2.51 µM
SR; read-out: pLC50 (converted)
  CC50: 100 µM
SR; read-out: pTGI
  TGI: 1.58 µM
MDA-MB-231
  GI50: 2.37 µM
  TGI: 9.47 µM
MDA-MB-231; read-out: LC50
  CC50: > 100 µM
MDA-MB-231; read-out: pGI50 (converted)
  GI50: 2.4 µM
MDA-MB-231; read-out: pLC50 (converted)
  CC50: 100 µM
MDA-MB-231; read-out: pTGI
  TGI: 9.55 µM
COLO 205
  GI50: 1.12 µM
  TGI: 3.15 µM
COLO 205; read-out: LC50
  CC50: 8.86 µM
COLO 205; read-out: pGI50 (converted)
  GI50: 1.12 µM
COLO 205; read-out: pLC50 (converted)
  CC50: 8.71 µM
COLO 205; read-out: pTGI
  TGI: 3.16 µM
A549
  GI50: 1.58 µM
  TGI: 41.4 µM
A549; read-out: LC50
  CC50: > 100 µM
A549; read-out: pGI50 (converted)
  GI50: 2.51 µM
A549; read-out: pLC50 (converted)
  CC50: 100 µM
A549; read-out: pTGI
  TGI: 41.7 µM
OVCAR-5
  GI50: 1.85 µM
  TGI: 15 µM
OVCAR-5; read-out: LC50
  CC50: > 100 µM
OVCAR-5; read-out: pGI50 (converted)
  GI50: 1.78 µM
OVCAR-5; read-out: pLC50 (converted)
  CC50: 100 µM
OVCAR-5; read-out: pTGI
  TGI: 15.1 µM
SF-295
  GI50: 0.81 µM
  TGI: 4.74 µM
SF-295; read-out: pGI50 (converted)
  GI50: 0.813 µM
SF-295; read-out: pTGI
  TGI: 4.79 µM
cells
  GI50: 2.23 µM
  TGI: 6.93 µM
cells; read-out: LC50
  CC50: > 100 µM
cells; read-out: pGI50 (converted)
  GI50: 2.24 µM
cells; read-out: pLC50 (converted)
  CC50: 100 µM
cells; read-out: pTGI
  TGI: 6.92 µM
RXF 393
  GI50: 0.25 µM
  TGI: 0.79 µM
RXF 393; read-out: LC50
  CC50: 4.25 µM
RXF 393; read-out: pGI50 (converted)
  GI50: 0.251 µM
RXF 393; read-out: pLC50 (converted)
  CC50: 4.27 µM
RXF 393; read-out: pTGI
  TGI: 0.794 µM
PC-3
  GI50: 0.93 µM
  TGI: 12.3 µM
PC-3; read-out: LC50
  CC50: > 100 µM
PC-3; read-out: pGI50 (converted)
  GI50: 0.117 µM
PC-3; read-out: pLC50 (converted)
  CC50: 100 µM
PC-3; read-out: pTGI
  TGI: 0.123 µM
HCT-15
  GI50: 0.87 µM
  TGI: 10.5 µM
HCT-15; read-out: LC50
  CC50: > 100 µM
HCT-15; read-out: pGI50 (converted)
  GI50: 8.91 µM
HCT-15; read-out: pLC50 (converted)
  CC50: 100 µM
HCT-15; read-out: pTGI
  TGI: 10.5 µM
[1]
  IC50: 0.073 µM
SK-MEL-2
  GI50: 1.47 µM
  TGI: 6 µM
SK-MEL-2; read-out: LC50
  CC50: > 100 µM
SK-MEL-2; read-out: pGI50 (converted)
  GI50: 1.48 µM
SK-MEL-2; read-out: pLC50 (converted)
  CC50: 100 µM
SK-MEL-2; read-out: pTGI
  TGI: 6.03 µM
Malme-3M
  GI50: 2.6 µM
  TGI: 6.99 µM
Malme-3M; read-out: LC50
  CC50: 43.5 µM
Malme-3M; read-out: pGI50 (converted)
  GI50: 2.63 µM
Malme-3M; read-out: pLC50 (converted)
  CC50: 43.7 µM
Malme-3M; read-out: pTGI
  TGI: 6.92 µM
SNB-75
  GI50: 1.31 µM
  TGI: 3.33 µM
SNB-75; read-out: LC50
  CC50: 8.48 µM
SNB-75; read-out: pGI50 (converted)
  GI50: 1.32 µM
SNB-75; read-out: pLC50 (converted)
  CC50: 8.51 µM
SNB-75; read-out: pTGI
  TGI: 3.31 µM
UO-31
  GI50: 1.59 µM
  TGI: > 100 µM
UO-31; read-out: pGI50 (converted)
  GI50: 1.58 µM
UO-31; read-out: pTGI
  TGI: 100 µM
SH-SY5Y
  IC50: 2.7 µM
IGROV-1
  GI50: 0.78 µM
  TGI: > 100 µM
IGROV-1; read-out: LC50
  CC50: > 100 µM
IGROV-1; read-out: pGI50 (converted)
  GI50: 0.776 µM
IGROV-1; read-out: pLC50 (converted)
  CC50: 100 µM
IGROV-1; read-out: pTGI
  TGI: 100 µM
T47D
  GI50: 2.48 µM
  TGI: 13.3 µM
T47D; read-out: LC50
  CC50: > 100 µM
T47D; read-out: pGI50 (converted)
  GI50: 3.09 µM
T47D; read-out: pLC50 (converted)
  CC50: 100 µM
T47D; read-out: pTGI
  TGI: 12.9 µM
U-251
  GI50: 1.4 µM
  TGI: 10.5 µM
U-251; read-out: LC50
  CC50: > 100 µM
U-251; read-out: pGI50 (converted)
  GI50: 1.41 µM
U-251; read-out: pLC50 (converted)
  CC50: 100 µM
U-251; read-out: pTGI
  TGI: 10.5 µM
M14
  GI50: 2 µM
  TGI: 7.93 µM
M14; read-out: LC50
  CC50: 34.3 µM
M14; read-out: pGI50 (converted)
  GI50: 2 µM
M14; read-out: pLC50 (converted)
  CC50: 34.7 µM
M14; read-out: pTGI
  TGI: 7.94 µM
NCI-H23
  GI50: 1.71 µM
  TGI: 7.79 µM
NCI-H23; read-out: LC50
  CC50: > 100 µM
NCI-H23; read-out: pGI50 (converted)
  GI50: 1.7 µM
NCI-H23; read-out: pLC50 (converted)
  CC50: 100 µM
NCI-H23; read-out: pTGI
  TGI: 7.76 µM
MCF7
  GI50: 0.59 µM
  TGI: 7.99 µM
MCF7; read-out: LC50
  CC50: > 100 µM
MCF7; read-out: pGI50 (converted)
  GI50: 0.589 µM
MCF7; read-out: pLC50 (converted)
  CC50: 100 µM
MCF7; read-out: pTGI
  TGI: 7.94 µM
NCI/ADR-RES
  GI50: 2.08 µM
  TGI: 15.7 µM
NCI/ADR-RES; read-out: LC50
  CC50: > 100 µM
NCI/ADR-RES; read-out: pGI50 (converted)
  GI50: 2.09 µM
NCI/ADR-RES; read-out: pLC50 (converted)
  CC50: 100 µM
NCI/ADR-RES; read-out: pTGI
  TGI: 15.8 µM
UACC-62
  GI50: 1.37 µM
  TGI: 5.5 µM
UACC-62; read-out: LC50
  CC50: 31.1 µM
UACC-62; read-out: pGI50 (converted)
  GI50: 1.38 µM
UACC-62; read-out: pLC50 (converted)
  CC50: 30.9 µM
UACC-62; read-out: pTGI
  TGI: 5.5 µM
HCT-116
  GI50: 0.51 µM
  TGI: 15 µM
HCT-116; read-out: LC50
  CC50: > 100 µM
HCT-116; read-out: pGI50 (converted)
  GI50: 0.513 µM
HCT-116; read-out: pLC50 (converted)
  CC50: 100 µM
HCT-116; read-out: pTGI
  TGI: 15.1 µM
